Experimental data from patent US5411956A, “Lipolytic enzyme inhibitors” (Nisshin Flour Milling Co., Ltd., priority 1989, dated 1995).

How the values were obtained:
[1] = biological target: T1, porcine pancreatic lipase (Sus scrofa, UniProt P00591); test: Assay of lipase inhibitory activity (olive oil emulsion with sodium cholate, Tris buffer); type: biochemical
T1 construct: purchased Sigma Co., Ltd
T1 sequence (P00591 1-450): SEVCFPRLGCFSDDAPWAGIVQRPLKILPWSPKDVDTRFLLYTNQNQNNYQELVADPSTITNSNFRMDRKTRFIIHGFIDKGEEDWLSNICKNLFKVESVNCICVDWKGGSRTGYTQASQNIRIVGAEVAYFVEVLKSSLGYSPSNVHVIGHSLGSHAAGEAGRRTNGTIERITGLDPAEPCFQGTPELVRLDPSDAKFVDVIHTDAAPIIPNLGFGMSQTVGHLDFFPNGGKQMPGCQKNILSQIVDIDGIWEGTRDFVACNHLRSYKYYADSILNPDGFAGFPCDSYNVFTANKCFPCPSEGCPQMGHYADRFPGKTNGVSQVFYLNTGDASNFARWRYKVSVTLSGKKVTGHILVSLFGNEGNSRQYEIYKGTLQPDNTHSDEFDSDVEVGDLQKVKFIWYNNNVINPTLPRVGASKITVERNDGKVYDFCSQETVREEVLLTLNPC
Protocol: 250 mg of an olive oil, 21.5 mg of sodium cholate as a bile acid component and 30 mg of phosphatidylcholine were added to 5 ml of a 200 mM Tris buffer solution at pH 6.8 (called hereafter "Tris buffer").
(§1) The mixture was ultrasonicated to prepare an olive oil emulsion.
Porcine pancreatic lipase (manufactured by Sigma Co., Ltd.) was added to Tris buffer to prepare an enzyme solution containing 100 units porcine pancreatic lipase per ml.
(§2) The control and six test samples were prepared in the following manner.
(§3) 100 μl of an olive oil emulsion as prepared above were used as a substrate.
(§4) 50 μl of Tris buffer was added to the substrate to prepare an emulsion for control sample. […] All of the emulsions were incubated for 5 min. To each of those emulsions was added 50 μl of the lipase solution as prepared above. The resulting mixture was incubated at 37° C. for one hour, subsequently to which were added 3 ml of the same extraction solvent as used in Example 1. After being shaken for 5 min., the mixture was centrifuged at 3000 rpm for 5 min. The upper layer was removed with an aspirator and to the remaining solution was added 1 ml of the same copper reagent as used in Example 1. The mixture was shaken for 5 min. and centrifuged at 3000 rpm for 5 min. 0.5 ml of a solution was taken from the upper layer and to the solution was added 0.5 ml of the same color developing agent as used in Example 1.
(§5) The resulting solutions for control and test samples were measured for the absorbance at 480 nm (A480) using a photometer to determine the amount of the free fatty acids as formed, i.e., the activity of the porcine pancreatic lipase.
100 μl of an olive oil emulsion prepared in the same way as in Example 4 were used as a substrate.
50 μl of Tris buffer was added to the substrate to prepare an emulsion for control sample. Each 50 μl of the polypeptide-containing solutions as prepared above was added to 100 μl of the substrate to prepare two emulsions for test sample. After incubating the emulsions for 5 min., there was added 50 μl of the enzyme solution prepared in the same way as in Example 4.
Further, the incubated mixture was treated and measured for the activity of porcine pancreatic lipase in the same way as in Example 4.
Lysine oligomers having a degree of polymerization of 2-5 as shown in Table 6 below were prepared using a peptide synthesizer (Biolynx 4170, LKB-Pharmacia Co., Ltd.). Each of the oligomers was purified by high performance liquid chromatography. Each of the purified oligomers was added to distilled water to make up to 1 μmol/ml. […] lysine oligomer-containing solutions were thus prepared.
50 μl of Tris buffer was added to the substrate to prepare an emulsion for control sample. […] After incubating the emulsions for 5 min., there was added 50 μl of a lipase solution containing 100 units of porcine pancreatic lipase per ml as prepared in the same way as in Example 4.

[2] = biological target: T1, porcine pancreatic lipase; test: Assay of lipase inhibitory activity of proteins (olive oil emulsion with sodium cholate, potassium phosphate buffer); type: biochemical; conditions: for Activity of porcine pancreatic lipase (%): 4 mg/ml protein solution, percentage of control Abs480, sodium cholate present, potassium phosphate buffer pH 6.8, 37 °C, one hour
Protocol: 250 mg of an olive oil, 21.5 mg of sodium cholate as a bile acid component and 30 mg of phosphatidylcholine were added to 5 ml of a 300 mM potassium phosphate buffer solution at pH 6.8 (called hereafter "potassium phosphate buffer").
as §1
Porcine pancreatic lipase (manufactured by Sigma Co., Ltd.) was added to the potassium phosphate buffer solution to prepare a lipase solution containing 100 units porcine pancreatic lipase per ml.
as §2, §3
50 μl of potassium phosphate buffer was added to the substrate to prepare an emulsion for control sample. Each 50 μl of the protein(polypeptide)-containing solutions as prepared above was added to 100 μl of the substrate to prepare six emulsions for test samples. All of the emulsions were incubated for 5 min. To each of those emulsions was added 50 μl of the lipase solution as prepared above. The resulting mixture was incubated at 37 ° C. for one hour, subsequently to which were added 3 ml of an extraction solvent (chloroform:methanol:n-heptane=49:1:49). After being shaken for 5 min., the mixture was centrifuged at 3000 rpm for 5 min. The upper layer was removed with an aspirator and to the remaining solution was added 1 ml of a copper reagent (0.45M triethanol amine, 0.05N acetic acid, 3.4% copper sulfate pentahydrate and 20% sodium chloride). The mixture was shaken for 5 min. and centrifuged at 3000 rpm for 5 min. 0.5 ml of a solution was taken from the upper layer and to the solution was added 0.5 ml of a color developing agent (a solution of 0.1% bathocuproine and 0.05% butyl hydroxyanisole in the above extraction solvent).
as §5

[3] = tested on: cholesterol esterase isolated from porcine pancreas; conditions: 4 mg/ml protein solution; percentage of control Abs480; sodium cholate present; 37 °C, one hour
Protocol: as §3
as §4, with “potassium phosphate” for “Tris”

[4] = Serum triglyceride concentration in rats after oral corn oil emulsion; type: in vivo, SD male rats; conditions: 2 ml corn oil emulsion + 100 mg ε-poly-L-lysine/dextrin 1:1, relative to pre-dose (0)
Protocol: Two groups of 10 SD male rats (9 weeks age, 200 g average bodyweight) were prepared.
50 g of corn oil, 6 g of yolk lecithine and 12.5 g of glycerol were added to distilled water to make up to 100 ml. The mixture was ultrasonicated to prepare an emulsion.
The rats of first group were each given 2 ml of the emulsion and 100 mg of ε-poly-L-lysine manufactured by Chisso Corp. (containing dextrin and ε-poly-L-lysine at a weight ratio of 1:1 and having formula (I) wherein n is ca. 30), orally using a gastric probe. Blood was drawn at predetermined intervals from the tail vein, and serum triglyceride concentration was measured using Kyowa Medics enzyme Kit TG, determined for mean value (mg/dl) per animal and calculated on the basis of serum triglyceride concentration prior to administration (taken as 0 mg/dl) (According to the invention).
The rats of second group were orally given 2 ml of the emulsion and 50 mg of dextrin. Serum triglyceride concentration was measured at predetermined intervals, determined for the average value and calculated in the same way as above (Comparative example).

[5] = 1 mg/ml peptide solution in distilled water, Tris buffer system as Example 4
[6] = 1 mg per 10 ml Tris buffer solution, pH 6.8, sodium cholate present, percentage of control Abs480

α-poly-D-lysine hydrobromide
Activity of porcine pancreatic lipase (%) [1, 5]: 1.1%

β-Purothionin: purified β-purothionin (SEQ ID NO: 3) isolated from the crude wheat purothionin mixture (KSCCKSTLGRNCYNLCRARGAQKLCANVCRCKLTSGLSCPKDFPK)
Activity of porcine pancreatic lipase (%) [1, 6]: 1.3% | Activity of porcine pancreatic lipase (%) [2]: 0% | Activity of porcine pancreatic lipase ([2]; concentration of 0.04 mg/ml, separate experiment in a similar manner): 5.2% | Lipase activity ([2]; protein solution diluted to 0.2 mg/ml, otherwise as Example 1): 0%

β-Lactoglobulin: β-lactoglobulin (L0130, Sigma Co., Ltd.), not a basic protein [reference compound]
Activity of cholesterol esterase (%) [3]: 89.9% | Activity of porcine pancreatic lipase (%) [2]: 103.9%

ε-poly-L-lysine
Blood concentration of neutral fats ([4]; 1 hr after oral administration): 53.3 ± 2.5 mg/dL | Blood concentration of neutral fats ([4]; 2 hrs after oral administration): 32.4 ± 4.9 mg/dL | Blood concentration of neutral fats ([4]; 3 hrs after oral administration): 16.7 ± 3.2 mg/dL | Blood concentration of neutral fats ([4]; 4 hrs after oral administration): 11.1 ± 3.0 mg/dL | Blood concentration of neutral fats ([4]; 7 hrs after oral administration): 4.2 ± 1.0 mg/dL

α-poly-L-lysine hydrochloride
Activity of porcine pancreatic lipase (%) [1, 6]: 6.9% | Activity of porcine pancreatic lipase (%) [1, 5]: 1.6%

Protamine
Activity of porcine pancreatic lipase (%) [1, 6]: 1.3%

B1: Ovalbumin: ovalbumin (A5503, Sigma Co., Ltd.), not a basic protein (protein, UniProt P01012 2-386, looked up)
Ovalbumin: GSIGAASMEFCFDVFKELKVHHANENIFYCPIAIMSALAMVYLGAKDSTRTQINKVVRFDKLPGFGDSIEAQCGTSVNVHSSLRDILNQITKPNDVYSFSLASRLYAEERYPILPEYLQCVKELYRGGLEPINFQTAADQARELINSWVESQTNGIIRNVLQPSSVDSQTAMVLVNAIVFKGLWEKAFKDEDTQAMPFRVTEQESKPVQMMYQIGLFRVASMASEKMKILELPFASGTMSMLVLLPDEVSGLEQLESIINFEKLTEWTSSNVMEERKIKVYLPRMKMEEKYNLTSVLMAMGITDVFSSSANLSGISSAESLKISQAVHAAHAEINEAGREVVGSAEAGVDAASVSEEFRADHPFLFCIKHIATNAVLFFGRCVSP
Activity of cholesterol esterase (%) [3]: 93.6% | Activity of porcine pancreatic lipase (%) [2]: 107.0%
